Where “and” joins values, the source holds several entries; their conditions need not be identical. Identical values can stand only once. Toxic doses and inconclusive results are not listed.

Drawing on PubChem BioAssay AID330 (DTP/NCI, 2004), this text covers T/C for 20 compounds.

In this assay the test system is P388 leukemia ip, CD2F1 mice, survival T/C. Nature of the assay: NCI In Vivo Anticancer Drug Screen. Data for tumor model P388 Leukemia (intraperitoneal) in CD2F1 (CDF1) mice. Conditions: endpoint: median survival time, higher = longer survival. The essentials: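 Mice carrying the transplanted tumor received test compound or vehicle. Survival was recorded in each group, and the value is the treated-group measurement divided by that of the vehicle-treated control group.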

Setting [1] is: dose: 100.0 mg/kg/injection, schedule: Q01DX009 (ip), vehicle: saline with Tween-80.
Where [2] appears, read: dose: 50.0 mg/kg/injection, schedule: Q01DX005 (ip), vehicle: saline with Tween-80.
Where [3] appears, read: dose: 100.0 mg/kg/injection, schedule: Q01DX005 (ip), vehicle: saline with Tween-80.
[4] abbreviates: dose: 200.0 mg/kg/injection, schedule: Q01DX005 (ip), vehicle: saline with Tween-80.
The mark [5] stands for this setting: dose: 60.0 mg/kg/injection, schedule: Q01DX005 (ip), vehicle: saline.
[6] abbreviates: dose: 120.0 mg/kg/injection, schedule: Q01DX005 (ip), vehicle: saline.
The mark [7] stands for this setting: dose: 240.0 mg/kg/injection, schedule: Q01DX005 (ip), vehicle: saline.

For the compound `CC1C(=O)C23CCC4C5(C)CCCC4(CN4CCOC45)C2CCC1C3` (stereo not given), the T/C was 97 % of control (dose: 1.0 mg/kg/injection, schedule: Q01DX009 (ip), vehicle: Klucel (hydroxypropylcellulose) (HPC)); 95 % of control (dose: 2.0 mg/kg/injection, schedule: Q01DX009 (ip), vehicle: Klucel (hydroxypropylcellulose) (HPC)); 98 % of control (dose: 4.0 mg/kg/injection, schedule: Q01DX009 (ip), vehicle: Klucel (hydroxypropylcellulose) (HPC)); 103 % of control (dose: 8.0 mg/kg/injection, schedule: Q01DX009 (ip), vehicle: Klucel (hydroxypropylcellulose) (HPC)).
Regarding `O=C1C=CC(=CC=C2C=CN(CCCCCCO)C=C2)C=C1`, the T/C (dose: 60.0 mg/kg/injection, schedule: Q01DX005 (ip), vehicle: saline with Tween-80) is 105 % of control; the T/C (dose: 120.0 mg/kg/injection, schedule: Q01DX005 (ip), vehicle: saline with Tween-80) was 116 % of control; the T/C (dose: 240.0 mg/kg/injection, schedule: Q01DX005 (ip), vehicle: saline with Tween-80) is 122 % of control.
For `CN1C(=O)Cn2c(nn(CCN3CCOCC3)c(=O)c2=O)-c2cc(Cl)ccc21`, the T/C (dose: 50.0 mg/kg/injection, schedule: Q01DX009 (ip), vehicle: saline) was 99 % of control; the T/C (dose: 100.0 mg/kg/injection, schedule: Q01DX009 (ip), vehicle: saline) is 102 % of control; the T/C (dose: 200.0 mg/kg/injection, schedule: Q01DX009 (ip), vehicle: saline) is 105 % of control.
For `Cc1[nH]nc2c(NCc3ccco3)ncnc12`, the T/C (dose: 25.0 mg/kg/injection, schedule: Q04DX003 (ip), vehicle: saline) was 98 % of control; the T/C (dose: 50.0 mg/kg/injection, schedule: Q04DX003 (ip), vehicle: saline) is 104 % of control; the T/C (dose: 100.0 mg/kg/injection, schedule: Q04DX003 (ip), vehicle: saline) is 101 % of control; the T/C (dose: 200.0 mg/kg/injection, schedule: Q04DX003 (ip), vehicle: saline) was 95 % of control.
For the compound `Nc1ncnc2c1ncn2C1OC(CO)CC1O` (stereo not given), the T/C (dose: 9.37 mg/kg/injection, schedule: Q01DX009 (ip), vehicle: Klucel (hydroxypropylcellulose) (HPC)) is 109 % of control; the T/C (dose: 18.75 mg/kg/injection, schedule: Q01DX009 (ip), vehicle: Klucel (hydroxypropylcellulose) (HPC)) is 104 % of control; the T/C (dose: 37.5 mg/kg/injection, schedule: Q01DX009 (ip), vehicle: Klucel (hydroxypropylcellulose) (HPC)) was 110 % of control; the T/C (dose: 75.0 mg/kg/injection, schedule: Q01DX009 (ip), vehicle: Klucel (hydroxypropylcellulose) (HPC)) is 112 % of control.
Consider `CC1(C)CNC(=S)N1Cc1ccccc1`, for which the T/C (dose: 50.0 mg/kg/injection, schedule: Q01DX009 (ip), vehicle: suspension in saline) is 100 % of control; the T/C (dose: 100.0 mg/kg/injection, schedule: Q01DX009 (ip), vehicle: suspension in saline) is 94 % of control; the T/C (dose: 200.0 mg/kg/injection, schedule: Q01DX009 (ip), vehicle: suspension in saline) is 100 % of control.
`CN1COC(OC2OCN(C)CC2(C)C)C(C)(C)C1` (stereo not given): under setting [1], the T/C was 160 % of control.
With `C[C@@H]1C[C@H]2OC(=O)[C@@]3(C)CCC[C@@](C)([C@@H]23)[C@@]1(O)CCc1ccoc1`, the T/C reads like this: (dose: 12.5 mg/kg/injection, schedule: Q01DX005 (ip), vehicle: Klucel (hydroxypropylcellulose) (HPC)) 108 % of control; (dose: 25.0 mg/kg/injection, schedule: Q01DX005 (ip), vehicle: Klucel (hydroxypropylcellulose) (HPC)) 105 % of control; (dose: 50.0 mg/kg/injection, schedule: Q01DX005 (ip), vehicle: Klucel (hydroxypropylcellulose) (HPC)) 106 % of control; (dose: 100.0 mg/kg/injection, schedule: Q01DX005 (ip), vehicle: Klucel (hydroxypropylcellulose) (HPC)) 97 % of control.
Take `NC1CN(C(COCc2ccccc2)c2ccc(OCc3ccccc3)cc2)C1=O` (stereo not given): the T/C under setting [2] is 100 % of control, the T/C under setting [3] was 103 % of control and the T/C under setting [4] is 97 % of control.
Take `N[C@@H](C[C@H]1CCC(=O)[C@@H]2O[C@H]12)C(=O)O`: the T/C (dose: 100.0 mg/kg/injection, schedule: Q04DX002 (ip), vehicle: saline) is 100 % of control; the T/C (dose: 200.0 mg/kg/injection, schedule: Q04DX002 (ip), vehicle: saline) is 98 % of control; the T/C (dose: 400.0 mg/kg/injection, schedule: Q04DX002 (ip), vehicle: saline) is 108 % of control; the T/C (dose: 600.0 mg/kg/injection, schedule: Q04DX002 (ip), vehicle: saline) was 112 % of control.
Regarding `Clc1ccc2c(c1)C(c1ccccc1Cl)=NCC(SCCN1CCOCC1)=N2`, the T/C under setting [5] was 107 % of control, the T/C under setting [6] is 101 % of control and the T/C under setting [7] was 112 % of control.
Turning to `COc1ccc(C2OC(=O)CN2C(=O)c2ccccc2)cc1` (stereo not given), the T/C by setting is: under setting [2], 107 % of control; under setting [3], 95 % of control; under setting [4], 90 % of control.
`CC(C)(C)/C=C/N=NNc1ccccc1C(=O)NC(C)(C)C`: the T/C was 95 % of control (dose: 15.0 mg/kg/injection, schedule: Q01DX005 (ip), vehicle: Klucel + Tween-80); 101 % of control (dose: 30.0 mg/kg/injection, schedule: Q01DX005 (ip), vehicle: Klucel + Tween-80); 87 % of control and 89 % of control (dose: 60.0 mg/kg/injection, schedule: Q01DX005 (ip), vehicle: Klucel + Tween-80).
Regarding `C=C(C)C(=O)OCCO` (tested in a mixture with another compound), the T/C was 100 % of control under setting [1]; 100 % of control (dose: 200.0 mg/kg/injection, schedule: Q01DX009 (ip), vehicle: saline with Tween-80); 100 % of control (dose: 400.0 mg/kg/injection, schedule: Q01DX009 (ip), vehicle: saline with Tween-80).
In the case of `CC(C)(O)C#CC(F)(F)C(F)(F)C(F)(F)C(F)(F)C(F)(F)C(F)(F)F`, the T/C is 107 % of control under setting [5], 105 % of control under setting [6] and 103 % of control under setting [7].
As for `Cn1c2ccccc2c(=O)c2cc(NC(=O)/C=C/C(=O)Nc3ccc4c(c3)c(=O)c3ccccc3n4C)ccc21`, the T/C is, setting by setting: under setting [2], 102 % of control; under setting [3], 105 % of control; under setting [4], 106 % of control.
For `O=C(O)C(O)C(O)C1[O][Sb][O]C1CO` (stereo not given), in that order: 98 % of control, 96 % of control and 96 % of control.
Take `CSc1nc(N(C)C)c2cnn(C3CCCCO3)c2n1` (stereo not given): the T/C was 97 % of control (dose: 100.0 mg/kg/injection, schedule: Q04DX002 (ip), vehicle: saline with Tween-80); 100 % of control (dose: 200.0 mg/kg/injection, schedule: Q04DX002 (ip), vehicle: saline with Tween-80); 100 % of control (dose: 400.0 mg/kg/injection, schedule: Q04DX002 (ip), vehicle: saline with Tween-80).
On to `C=C1C(=O)O[C@H]2C[C@H]3O[C@H]3[C@@H]12`, for which the T/C (dose: 1.56 mg/kg/injection, schedule: Q01DX009 (ip), vehicle: water) is 100 % of control; the T/C (dose: 3.13 mg/kg/injection, schedule: Q01DX009 (ip), vehicle: water) was 99 % of control; the T/C (dose: 6.25 mg/kg/injection, schedule: Q01DX009 (ip), vehicle: water) was 98 % of control; the T/C (dose: 12.5 mg/kg/injection, schedule: Q01DX009 (ip), vehicle: water) was 101 % of control; the T/C (dose: 25.0 mg/kg/injection, schedule: Q01DX009 (ip), vehicle: water) is 107 % of control.
For `O=C1CCCc2[nH]c3ccc(Cl)cc3c21`, the T/C is 92 % of control under setting [2], 99 % of control under setting [3] and 92 % of control under setting [4].
